Measurements published in patent US5710150A, “Benzazepine derivative, pharmaceutical composition thereof, and intermediate thereof” (Yamanouchi Pharmaceutical Co., Ltd., priority 1993, dated 1998).
Structures can show the parent of a compound that is named as a salt. Where two headings read alike, the source gives them in different places.

Key:
[1] = target: arginine vasopressin V2 receptor (Oryctolagus cuniculus, UniProt G1TA00); test: V2 receptor binding assay ([3H]-Arg-vasopressin, rabbit renal medulla membrane); details: for antagonism on V2 receptor (in words): compared with OPC-31260 and OPC-21268; for Binding activity on arginine vasopressin V2 receptor (pKi): rabbit renal medulla membrane, [3H]-Arg-vasopressin 2 nM
[2] = target: T1, arginine vasopressin V1 receptor (Rattus norvegicus, UniProt P30560); test: V1 receptor binding assay ([3H]-Arg-vasopressin, rat liver membrane); details: for antagonism on V1 receptor (in words): compared with OPC-31260 and OPC-21268
T1 construct: A rat liver membrane sample was prepared; from tissue; host or cells: rat liver membranes
Experimental: (1) V1 receptor binding assay
A rat liver membrane sample was prepared in accordance with the method of Nakamura et al. (J. Biol. Chem., 258, 9283 (1983)), and [^3 H]-Arg-vasopressin (2 nM, specific activity=75.8 Ci/mmol), 70 μg of the membrane sample and each drug to be tested (10^-8 to 10^-4 M) were incubated at 30° C. for 30 minutes in 250 μl of 100 mM Tris-HCl buffer (pH=8.0) containing 5 mM of magnesium chloride, 1 mM of ethylenediaminetetraacetic acid (EDTA) and 0.1% of bovine serum albumin (BSA). Thereafter, the incubation solution was sucked off using a cell harvester and free ligand and excess buffer were removed by passing the reaction mixture through a glass filter (GF/B), thereby trapping receptor-bound labeled ligand on the glass filter. The glass filter was taken out, thoroughly dried and then mixed with a liquid scintillation cocktail, and the amount of the membrane-bound [^3 H]-vasopressin was measured using a liquid scintillation counter to calculate the inhibition ratio by the following formula. [formula] C1 : amount of [^3 H]-vasopressin bound to the membrane in the coexistence of known amount of each drug to be tested and [^3 H]-vasopressin
C0 : amount of [^3 H]-vasopressin bound to the membrane when the drug to be tested was not added
B1 : amount of [^3 H]-vasopressin bound to the membrane in the presence of excess vasopressin (10^-6 M)
[formula] [L]: concentration of radioactive ligand KD: dissociation constant calculated from Scatchard plot
Negative logarithm of the thus calculated Ki value was used as pKi value.

[3] = rat liver membrane, [3H]-Arg-vasopressin 2 nM, 30° C., 30 minutes, pH 8.0, read-out: Binding activity on arginine vasopressin V1 receptor (pKi) (converted)

T1 sequence (P30560 whole entry): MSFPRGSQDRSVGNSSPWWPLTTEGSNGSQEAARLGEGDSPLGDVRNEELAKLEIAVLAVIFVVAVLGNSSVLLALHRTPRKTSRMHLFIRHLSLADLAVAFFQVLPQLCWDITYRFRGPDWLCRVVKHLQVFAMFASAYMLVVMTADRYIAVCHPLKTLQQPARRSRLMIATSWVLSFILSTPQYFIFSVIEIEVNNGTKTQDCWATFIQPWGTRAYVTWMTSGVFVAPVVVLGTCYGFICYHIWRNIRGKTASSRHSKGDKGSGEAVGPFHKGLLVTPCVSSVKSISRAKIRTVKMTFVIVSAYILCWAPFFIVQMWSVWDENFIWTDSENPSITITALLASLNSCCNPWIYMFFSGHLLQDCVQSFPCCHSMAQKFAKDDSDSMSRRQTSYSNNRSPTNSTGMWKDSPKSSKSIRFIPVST
Chain of arginine vasopressin V2 receptor (G1TA00 78-446): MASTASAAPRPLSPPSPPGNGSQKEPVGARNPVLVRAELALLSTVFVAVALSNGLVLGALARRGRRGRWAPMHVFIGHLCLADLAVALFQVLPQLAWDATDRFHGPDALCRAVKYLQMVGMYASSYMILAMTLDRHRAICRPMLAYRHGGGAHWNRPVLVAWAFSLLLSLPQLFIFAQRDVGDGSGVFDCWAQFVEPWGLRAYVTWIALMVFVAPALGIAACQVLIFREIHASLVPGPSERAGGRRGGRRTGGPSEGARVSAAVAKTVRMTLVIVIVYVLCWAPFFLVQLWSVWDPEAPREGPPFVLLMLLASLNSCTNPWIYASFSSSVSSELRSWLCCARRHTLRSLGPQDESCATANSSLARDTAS

SMILES	Binding activity on arginine vasopressin V2 receptor (pKi) [1]	Ki [2, 3] [nM]	other results
Cl.O=C(Nc1ccc(C(=O)N2CCC(F)(F)/C(=C\C(=O)N3CCNCC3)c3ccccc32)cc1)c1ccccc1-c1ccccc1 [Example 12, (Z)-4'-[[4,4-difluoro-5-[(1piperazinylcarbonyl)methylene]-2,3,4,5-tetrahydro-1H-1-benzazepin-1-yl]carbonyl]-2-phenylbenzanilide hydrochloride]	9.71	0.219	antagonism on V2 receptor (in words) [1]: excellent antagonisms on both V1 and V2 receptors; antagonism on V1 receptor (in words) [2]: excellent antagonisms on both V1 and V2 receptors
CN1CCC(N(C)C(=O)/C=C2/c3ccccc3N(C(=O)c3ccc(NC(=O)c4ccccc4-c4ccccc4)cc3)CCC2(F)F)CC1 [Example 84, (Z)-4'-[[4,4-difluoro-5-[[N-methyl-N-(1-methyl-4-piperidyl)carbamoyl]methylene]-2,3,4,5-tetrahydro-1H-1-benzazepin-1-yl]carbonyl]-2-phenylbenzanilidehydrochloride]	–	0.102	–
Cc1cccc(-c2ccccc2C(=O)Nc2ccc(C(=O)N3CCC(F)(F)/C(=C\C(=O)N4CCN(C)CC4)c4ccccc43)cc2)c1.Cl [Example 19, (Z)-4'-[[4,4-difluoro-5-(4-methyl-1-piperazinyl)carbonylmethylene-2,3,4,5-tetrahydro-1H-1-benzazepin-1-yl]carbonyl]-2-(3-methylphenyl)benzanilide hydrochloride]	8.84	2.63	–
CNC(=O)/C=C1/c2ccccc2N(C(=O)c2ccc(NC(=O)c3ccccc3-c3ccccc3)cc2)CCC1(F)F [Example 122, (Z)-4'-[[4,4-difluoro-5-(N-methylcarbamoylmethylene)-2,3,4,5-tetrahydro-1H-1-benzazepin-1-yl]carbonyl]-2-phenylbenzanilide]	8.94	0.355	–
CCc1nccn1-c1ccccc1C(=O)Nc1ccc(C(=O)N2CCC(F)(F)/C(=C\C(N)=O)c3ccccc32)cc1 [Example 103, (Z)-4'-[(5-carbamoylmethylene-4,4-difluoro-2,3,4,5-tetrahydro-1H-1-benzazepin-1-yl]carbonyl]-2-(2-ethyl-1H-imidazol-1-yl)benzanilide]	6.35	2	V1 selectivity (in words) ([2]; V1 versus V2 receptor binding): excellent in V1 selectivity; V1 receptor antagonism compared with OPC-21268 (in words) ([2]; versus OPC-21268): markedly stronger V1 receptor antagonism than that of OPC-21268
CN1CCN(C/C=C2/c3ccccc3N(C(=O)c3ccc(NC(=O)c4ccccc4-c4ccccc4)cc3)CCC2(F)F)CC1.Cl.Cl [Example 80, (Z)-4'-[[4,4-difluoro-5-[2-(4-methyl-1-piperazinyl)ethylidene]-2,3,4,5-tetrahydro-1H-1-benzazepin-1-yl]carbonyl]-2-phenylbenzanilide dihydrochloride]	8.50	0.363	–
Cc1ccccc1CC(=O)Nc1ccc(C(=O)N2CCC(F)(F)/C(=C\C(=O)N3CCC(N(C)C)CC3)c3ccccc32)cc1 [Example 106, hydrochloride]	8.24	1.12	–
O=C(/C=C1/c2ccccc2N(C(=O)c2ccc(NC(=O)c3ccccc3-c3ccccc3)cc2)CCC1(F)F)NCc1ccccn1 [Example 14, (Z)-4'-[[4,4-difluoro-5-[N-(2-pyridylmethyl)carbonylmethylene]-2,3,4,5-tetrahydro-1H-1-benzazepin-1-yl]carbonyl]-2-phenylbenzanilide hydrochloride]	9.39	1.23	–
O=C(Nc1ccc(C(=O)N2CCC(F)(F)/C(=C\C(=O)N3CCCC3)c3ccccc32)cc1)c1ccccc1-c1ccccc1 [Example 131]	7.99	0.708	–
O=C(/C=C1/c2ccccc2N(C(=O)c2ccc(NC(=O)c3ccccc3-c3ccccc3)cc2)CCC1(F)F)NCCO [Example 134, (Z)-4'-[[4,4-difluoro-5-[N-(2-hydroxyethyl)carbamoylmethylene]-4,4-difluoro-2,3,4,5-tetrahydro-1H-1-benzazepin-1-yl]carbonyl]-2-phenylbenzanilide]	8.94	–	Binding activity on arginine vasopressin V1 receptor (pKi) ([2]; rat liver membrane, [3H]-Arg-vasopressin 2 nM, 30° C., 30 minutes, pH 8.0): 9.50
O=C(Nc1ccc(C(=O)N2CCC(F)(F)/C(=C\C(=O)N3CCCNCC3)c3ccccc32)cc1)c1ccccc1-c1ccccc1 [Example 28, (Z)-4'-[[[5-[(hexahydro-1,4-diazepin-1-yl)carbonyl]methylene]-4,4-difluoro-2,3,4,5-tetrahydro-1H-1-benzazepin-1-yl]carbonyl]-2-phenylbenzanilide hydrochloride]	9.37	0.0832	antagonism on V2 receptor (in words) [1]: excellent antagonisms on both V1 and V2 receptors; antagonism on V1 receptor (in words) [2]: excellent antagonisms on both V1 and V2 receptors
O=C(Nc1ccc(C(=O)N2CCC(F)(F)/C(=C\C(=O)N3CCOCC3)c3ccccc32)cc1)c1ccccc1-c1ccccc1 [Example 133, (Z)-4'-[(4,4-difluoro-5-morpholinocarbonylmethylene-4,4-difluoro-2,3,4,5-tetrahydro-1H-1-benzazepin-1-yl)carbonyl]-2-phenylbenzanilide]	8.28	0.363	–
CC(C)NC(=O)/C=C1/c2ccccc2N(C(=O)c2ccc(NC(=O)c3ccccc3-c3ccccc3)cc2)CCC1(F)F [Example 125, (Z)-4'-[[4,4-difluoro-5-(N-isopropylcarbamoylmethylene)-2,3,4,5-tetrahydro-1H-1-benzazepin-1-yl]carbonyl]-2-phenylbenzanilide]	8.08	0.282	–
CN(C)C1CCN(C(=O)/C=C2/c3ccccc3N(C(=O)c3ccc(NC(=O)c4cccn4C)cc3)CCC2(F)F)CC1 [Example 110, (Z)-N-[4-[[4,4-difluoro-5-[[(4-dimethylaminopiperidino)carbonyl]methylene]-2,3,4,5-tetrahydro-1H-1-benzazepin-1-yl]carbonyl]phenyl]-1-methylpyrrole-2-carboxyamide hydrochloride]	7.75	–	Ki [2]: 0.398 nM
Cc1ccc(-c2ccccc2C(=O)Nc2ccc(C(=O)N3CCC(F)(F)/C(=C\C#N)c4ccccc43)cc2)cc1 [Compound 22 (a), 4'-[(5-cyanomethylene-4,4-difluoro-2,3,4,5-tetrahydro-1H-1-benzazepin-1-yl)carbonyl]-2-(4methylphenyl)benzanilide]	8.36	–	Ki [2]: 9.55 nM
NC(=O)/C=C1/c2ccccc2N(C(=O)c2ccc(NC(=O)c3ccccc3-c3ccccc3)cc2)CCC1(F)F [Example 121, (Z)-4'-[(5-carbamoylmethylene-4,4-difluoro-2,3,4,5-tetrahydro-1H-1-benzazepin-1-yl]carbonyl]-2-phenylbenzanilide]	8.59	0.295	–
O=C(/C=C1/c2ccccc2N(C(=O)c2ccc(NC(=O)c3ccccc3-c3ccccc3)cc2)CCC1(F)F)NC1CC1 [Example 126]	8.22	0.288	–
